Data on four compounds can be found in paper PMC10687260, “1,3-Diphenylureido hydroxamate as a promising scaffold for generation of potent antimalarial histone deacetylase inhibitors” (Scientific Reports, 2023).

The structures appear in SMILES notation.

One assay relates to Jurkat. The arrangement: method as in PMID 33668008. Particulars: Fig. 1A; cited from earlier work.
The test system of another assay is Namalwa. The arrangement: method as in PMID 33668008. Particulars: Fig. 1A; cited from earlier work.
The target in another assay is T1, PfHDAC1 (Plasmodium falciparum, UniProt Q7K6A1).
T1 construct: purchased BPS Bioscience (San Diego, CA)
T1 sequence (Q7K6A1 1-449): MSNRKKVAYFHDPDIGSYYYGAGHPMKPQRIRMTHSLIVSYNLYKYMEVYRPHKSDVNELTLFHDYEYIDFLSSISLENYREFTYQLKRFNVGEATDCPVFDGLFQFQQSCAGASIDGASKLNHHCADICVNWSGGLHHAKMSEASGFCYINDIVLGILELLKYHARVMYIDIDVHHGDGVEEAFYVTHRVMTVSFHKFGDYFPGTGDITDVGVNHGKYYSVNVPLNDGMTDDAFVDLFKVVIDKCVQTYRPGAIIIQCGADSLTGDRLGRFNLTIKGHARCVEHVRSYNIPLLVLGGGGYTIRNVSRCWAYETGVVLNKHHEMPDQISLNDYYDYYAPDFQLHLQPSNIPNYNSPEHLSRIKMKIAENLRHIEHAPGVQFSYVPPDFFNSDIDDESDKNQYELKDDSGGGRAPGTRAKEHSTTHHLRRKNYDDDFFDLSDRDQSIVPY
As to the kind of experiment: In vitro PfHDAC1 enzymatic assay. Conditions: for inhibition at 1 µM / inhibition at 10 µM: recombinant PfHDAC1. The format is biochemical. On the procedure: In vitro PfHDAC1 enzymatic assay. PfHDAC inhibition assays were performed by BPS Bioscience (San Diego, CA). […] Then, each DMSO solution was directly diluted 10 × fold into the HDAC assay buffer for an intermediate dilution of 10% DMSO in HDAC assay buffer. Then, 5 µL of the intermediate dilution was added to a 50 µL reaction so that the final concentration of DMSO is 1% in all the reactions. […] Fluorescence intensity was measured at an excitation of 360 nm and an emission of 460 nm using a Tecan Infinite M1000 microplate reader. […] The fluorescent intensity data were analyzed using GraphPad Prism (v9.5.2). In the absence of the compound, the fluorescent intensity (Ft) in each data set was defined as 100% activity. In the absence of HDAC, the fluorescent intensity (Fb) in each data set was defined as 0% activity. The percent activity in the presence of each compound was calculated according to the following equation: % activity = (F-Fb)/(Ft-Fb), where “F” is the fluorescent intensity in the presence of the compound.

For the next assay, the system named is acetylated histone H4. Kind of assay: Western blot of acetylated histone H4 in infected erythrocytes. The assay is classed as cell-based, Plasmodium falciparum. Conditions: 10 × IC50 for 4 h, trophozoites, vs DMSO. On the procedure: (§1) Figure 5 Hydroxamic acid derivatives as potent in vitro PfHDAC1 inhibitors. […]. Enzyme activity was calculated by normalizing the data against the DMSO treated samples and discounting the background. Data are presented as shown above, with mean ± S.D. (n = 2). […]. Comparison of group/concentration against the DMSO control is represented as † for P < 0.0001. […]. Numbers on side of the bands represent the predicted mass (kDa) for each protein. (C,D) Band quantification of histone H3 (C) and H4 (D), respectively, normalizing their acetylated detection against their unmodified version. Differences to this value were analyzed by one way ANOVA using the Dunnett’s post correction, comparing each group against the DMSO control, as rank tests where P values are explicitly depicted.
(§2) Western Blot analysis. […]. Proteins were transferred to PVDF membranes, 5% non-fat dry milk in TBS with Tween 20 (0.1%) was used as blocking agent for 1 h at room temperature. After, incubated with the antibodies overnight at 4 °C (Acetyl Histone H3 Lys9 C5B11 Cell Signaling, Acetyl Histone H4 Lys16 E2B8W Cell Signaling, Histone H3 96C10 Cell Signaling and Histone H4 D2X4V Cell Signaling). For the analysis of protein acetylation levels, the membranes were stripped and re-probed with the corresponding anti-total protein. Mouse monoclonal anti-α-Tubulin (B512 Sigma-Aldrich) was used as loading control. Detection was performed by enhanced chemiluminescence using horseradish peroxidase-conjugated secondary antibodies (Vector Laboratories, Burlingame, CA, USA) and SuperSignal TM West Pico PLUS Chemiluminescent substrate kit (Thermo Scientific). Images were acquired using ChemiDoc TM Imaging System (BioRad Laboratories, CA, USA). Quantitative densitometry was carried out using ImageLab software (Bio-Rad Laboratories, CA, USA). The volume density of the chemiluminescent bands was calculated as an integrated optical density × mm^2 after background correction from each independent experiment (N = 3).

The next assay concerns P. falciparum Dd2. As to the kind of experiment: Antiplasmodial SYBR Green I proliferation assay, P. falciparum Dd2. The assay is classed as cell-based. Particulars: Plasmodium falciparum, DD2; multidrug/CQ-resistant strain; read-out: IC50 P. falciparum Dd2. The source says:
Antiplasmodial activity against P. falciparum 3D7 (A, C and E) and P. falciparum Dd2 (B, D, F). […] Curves were plotted using non-linear regression based on means from three independent experiments measured in triplicate. Error bars indicate standard deviation, whose values are provided in the respective table.
Plasmodium falciparum culture and antiplasmodial activity. […] Development, parasitaemia, and morphology of parasites were monitored by light microscopy of thin blood smears stained according to the Romanowsky method (Panótico Rápido staining kit; Laborclin, Pinhais, Paraná, Brazil). […] Fresh 0^+ blood was generously provided by “Hospital Novo Atibaia” (Atibaia, SP, Brazil), and approved by the ethics committee at ICB-USP. The antiplasmodial effect of all compounds was validated against P. falciparum 3D7 strain conducting SYBR Green I (Invitrogen) drug assays as previously reported[30],[46] as a modification of the original procedure. […] Parasite proliferation was measured by the DNA load via fluorescence, using 100 μL of a lysis buffer with SYBR Green I (0.02% v/v) and incubated for 1 h at room temperature in the dark. […] Focal and gain adjustment was performed using the non-treated controls (highest expected fluorescence signal). Data was acquired via the CLARIOstar (V5.20) and MARS software, manually scaled to 0–100%, and plotted using GraphPad Prism (v9.5.2 for Windows, GraphPad Software, La Jolla California USA, www.graphpad.com). Non-treated parasites, the highest solvent concentration on parasites, CQ on parasites, and the highest drug concentration in the medium were used as controls for maximal growth, solvent control, positive biological control, and native drug fluorescence, respectively.

Another assay relates to acetylated histone H3. As to the kind of experiment: Western blot of acetylated histone H3 in infected erythrocytes. The assay is classed as cell-based, Plasmodium falciparum. Particulars: 10 × IC50 for 4 h, trophozoites, vs DMSO. The protocol:
as §1, §2

As to `O=C(Nc1ccccc1)Nc1ccc(C(=O)NO)cc1` [Compound 8a, N-hydroxy-4-(3-phenylureido)bezamide], the values for the IC50 with Jurkat and with Namalwa were 2.5 µM and 0.53 µM, respectively.
For the compound `COc1ccc(NC(=O)Nc2ccc(/C=C/C(=O)NO)cc2)cc1` [Compound 6c, (E)-N-hydroxi-3-(4-(3-(4-methoxyphenyl)ureido)phenyl)acrylamide], on PfHDAC1, the inhibition at 1 µM came out at 69% and the inhibition at 10 µM was 82%. The remaining activity at 1 µM on PfHDAC1 (1 µM, read-out: PfHDAC1 residual activity) is 26%. Besides, the “Acetylated-H4 level (normalised to unmodified H4)” value in the assay with acetylated histone H4 is listed as “significant elevation”.
As for `COc1ccc(NC(=O)Nc2ccc(C(=O)NO)cc2)cc1` [Compound 8c, N-hydroxy-4-(3–4(-methoxyphenyl)ureido)benzamide], in the assay with P. falciparum Dd2, the 50% inhibitory concentration (IC50) is 0.8 µM. Besides, on PfHDAC1, the inhibition at 1 µM is approximately 50%. In addition, in the assay on acetylated histone H3, the “Acetylated-H3 level (normalised to unmodified H3)” value is reported as “two-fold increase”. Also, the “Acetylated-H4 level (normalised to unmodified H4)” value in the assay with acetylated histone H4 is listed as “significant elevation”.
As to `COc1ccc(NC(=O)Nc2ccc(CCC(=O)NO)cc2)cc1` [Compound 7c, N-hydroxy-3-(4-(3-(4-methoxyphenyl)ureido)phenyl)propanamide], on PfHDAC1, the inhibition at 1 µM was approximately 50% and the inhibition at 10 µM was 88%. In addition, in the assay with acetylated histone H3, the “Acetylated-H3 level (normalised to unmodified H3)” value was “two-fold increase”.
